Reference: ChEMBL document CHEMBL5137114, “Discovery of IHMT-MST1-58 as a Novel, Potent, and Selective MST1 Inhibitor for the Treatment of Type 1/2 Diabetes” (J Med Chem, 2022)
Calls of active or inactive are those of the source. The rule behind the calls is not given here.

Assays:
[1] = Half life in Sprague-Dawley rat at 10 mg/kg, po measured up to 24 hrs by LC-MS/MS analysis; assay type: ADME, organism-based; settings: in vivo
[2] = biological target: T1, Serine/threonine-protein kinase 3 (Homo sapiens, UniProt Q13188); experiment: Inhibition of recombinant full length N-terminal GST -tagged human MST2 expressed in baculovirus infected Sf9 insect cells using KKSRGDYMTMQIG as substrate incubated for 1 hr in presence of ATP by ADP-Glo luminescent assay
T1 sequence (Q13188 whole entry): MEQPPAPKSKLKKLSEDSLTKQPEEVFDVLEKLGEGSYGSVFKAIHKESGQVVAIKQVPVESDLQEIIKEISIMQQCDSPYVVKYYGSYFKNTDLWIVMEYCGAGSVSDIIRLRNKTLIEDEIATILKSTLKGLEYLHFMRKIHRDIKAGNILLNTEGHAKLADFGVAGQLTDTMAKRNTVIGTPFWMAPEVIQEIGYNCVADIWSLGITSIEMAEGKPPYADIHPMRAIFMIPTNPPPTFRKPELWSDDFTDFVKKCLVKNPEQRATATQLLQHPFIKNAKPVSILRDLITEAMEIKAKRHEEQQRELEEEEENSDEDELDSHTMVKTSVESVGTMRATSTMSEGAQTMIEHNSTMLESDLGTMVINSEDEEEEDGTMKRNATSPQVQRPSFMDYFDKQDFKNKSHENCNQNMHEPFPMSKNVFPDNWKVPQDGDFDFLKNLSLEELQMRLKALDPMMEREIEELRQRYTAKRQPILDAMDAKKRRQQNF

[3] = Clearance in mouse plasma at 50 mg/kg, po measured up to 24 hrs by LC-MS/MS analysis; assay type: ADME, organism-based
[4] = test system: Serine/threonine-protein kinase 4 (Rattus norvegicus); experiment: Inhibition of IL-1beta-stimulated MST1 in rat INS1 cells assessed as reduction in MOB1 autophosphorylation incubated for 12 hrs by Western blotting analysis; settings: dose 0.1-10 µM, DDE = dose-dependent effect
[5] = test system: RAW264.7; experiment: Inhibition of MST1 in mouse RAW264.7 cells assessed as reduction in H2O2-stimulated MOB1 phosphorylation at T35 residue preincubated for 2 hrs followed by H2O2 addition for 30 mins by Western blotting analysis; assay type: cell-based; settings: dose 0.1-10 µM, time 2.5 hrs, DDE = dose-dependent effect
[6] = AUC (0 to t) in mouse plasma at 50 mg/kg, po measured up to 24 hrs by LC-MS/MS analysis; assay type: ADME, organism-based; parameters: dose 50 mg/kg, time < 24 hrs, route po
[7] = Toxicity in high fat diet-STZ-induced C57BL/6J mouse model of type 2 diabetes assessed as effect on pancreas morphology at 250 mg/kg, po qd in presence of metformin by H and E staining based analysis; assay type: organism-based; settings: in vivo
[8] = Cytotoxicity against rat RIN-m5F cells at 10 uM incubated for 72 hrs by Cell Titer-Glo assay; assay type: toxicity, cell-based
[9] = test system: INS1; experiment: Cytotoxicity against rat INS1 cells at 10 uM incubated for 72 hrs by Cell Titer-Glo assay; assay type: toxicity, cell-based; settings: ins1, 72 h
[10] = test system: Mus musculus; experiment: Antidiabetic activity against high fat diet-STZ-induced C57BL/6J mouse model of type 2 diabetes assessed as improvement in food intake at 50 mg/kg, po qd administered upto 106 days in presence of metformin; assay type: functional, organism-based; settings: time <= 106.0 day
[11] = test system: Mus musculus; experiment: Antidiabetic activity in 12 to 14 hrs fasted multi low dose STZ-induced C57BL/6J mouse model of type 1 diabetes assessed as reduction on blood glucose at 50 mg/kg, po qd pretreated with compound followed by glucose challenge and measured upto 180 mins by IPGTT assay; assay type: functional, organism-based
[12] = test system: Serine/threonine-protein kinase 4 (Rattus norvegicus); experiment: Inhibition of INF-gamma-stimulated MST1 phosphorylation in rat INS1 cells incubated for 12 hrs by Western blotting analysis; settings: dose 0.1-10 µM, DDE = dose-dependent effect
[13] = test system: Mus musculus; experiment: Antidiabetic activity against 8 hrs fasted multi low dose STZ-induced C57BL/6J mouse model of type 1 diabetes assessed as decrease in fasting blood glucose level at 50 mg/kg, po administered for 77 days (reference value: 22.3 mmol/L); assay type: functional; settings: time 77 day
[14] = biological target: T1, Serine/threonine-protein kinase 3; experiment: Binding affinity to wild-type human partial length MST2 (D17 to E318 residues) expressed in bacterial expression system by Kinomescan method
[15] = Toxicity in high multi low dose STZ-induced C57BL/6J mouse model of Type 1 diabetes assessed as effect on body weight at 50 mg/kg, po qd in presence of metformin; assay type: organism-based; settings: in vivo
[16] = test system: Mus musculus; experiment: Antidiabetic activity against 8 hrs fasted multi low dose STZ-induced C57BL/6J mouse model of type 1 diabetes assessed as decrease in fasting blood glucose level at 50 mg/kg, po administered measured immediately in presence of metformin (reference value: 19.3 mmol/L); assay type: functional
[17] = test system: RAW264.7; experiment: Inhibition of MST1 in mouse RAW264.7 cells assessed as reduction in H2O2-stimulated MST1/MST2 autophosphorylation at T183/T180 residues preincubated for 2 hrs followed by H2O2 addition for 30 mins by Western blotting analysis; assay type: cell-based; settings: dose 0.1-10 µM, time 2.5 hrs, DDE = dose-dependent effect
[18] = test system: Serine/threonine-protein kinase 4 (Rattus norvegicus); experiment: Inhibition of INF-gamma-stimulated MST1 in rat INS1 cells assessed as reduction in MOB1 autophosphorylation incubated for 12 hrs by Western blotting analysis; settings: dose 0.1-10 µM, DDE = dose-dependent effect
[19] = AUC (0 to t) in mouse Pancreas at 50 mg/kg, po measured up to 24 hrs by LC-MS/MS analysis; assay type: ADME, organism-based; parameters: time < 24 hrs, dose 50 mg/kg, route po
[20] = test system: Mus musculus; experiment: Antidiabetic activity in multi low dose STZ-induced C57BL/6J mouse model of type 1 diabetes assessed as reduction in HbA1c level at 50 mg/kg, po qd (reference value: 7.6 %); assay type: functional; parameters: scale not given: the % may be the effect or the level left
[21] = biological target: T2, Serine/threonine-protein kinase Nek3 (Homo sapiens) (UniProt P51956); experiment: Inhibition of recombinant full length N-terminal GST -tagged human NEK3 expressed in baculovirus expression system using S2 as substrate incubated for 2 hrs by HTRF assay relative to control; settings: Sf9, concentration not given here
T2 sequence (whole entry): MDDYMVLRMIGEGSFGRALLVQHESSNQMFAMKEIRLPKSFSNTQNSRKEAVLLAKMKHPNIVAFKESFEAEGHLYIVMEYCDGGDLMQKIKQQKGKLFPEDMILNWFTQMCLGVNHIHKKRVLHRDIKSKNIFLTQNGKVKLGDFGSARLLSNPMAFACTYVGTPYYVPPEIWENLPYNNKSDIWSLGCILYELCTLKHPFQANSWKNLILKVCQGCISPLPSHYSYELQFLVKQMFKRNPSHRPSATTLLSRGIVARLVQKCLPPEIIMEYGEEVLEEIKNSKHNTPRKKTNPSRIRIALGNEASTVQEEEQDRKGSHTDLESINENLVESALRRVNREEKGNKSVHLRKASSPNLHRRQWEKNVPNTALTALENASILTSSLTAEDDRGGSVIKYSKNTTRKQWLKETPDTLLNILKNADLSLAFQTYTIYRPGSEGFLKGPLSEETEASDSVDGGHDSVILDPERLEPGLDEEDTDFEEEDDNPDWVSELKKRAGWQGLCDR

[22] = AUC (0 to t) in Beagle dog at 10 mg/kg, po measured up to 24 hrs by LC-MS/MS analysis; assay type: ADME, organism-based, Canis lupus familiaris; parameters: dose 10 mg/kg, time < 24 hrs, route po; settings: in vivo

Cc1ccccc1C1C(=O)N(C)c2cnc(Nc3ccc(S(N)(=O)=O)cc3)nc2N1C (configuration not stated)
half-life [1]: 3.03 h | IC50 [2]: 652 nM | CL/F [3]: 62.2 mL/min/kg | inhibition [4]: Dde | inhibition [5]: Dde | AUC(0-t) at 24 h [6]: 13600 ng·h/mL | Activity [7]: Non-Toxic | Activity [8]: Non-Toxic | Activity [9]: Non-Toxic | Activity [10]: Active | Activity [11]: Active | inhibition [12]: Dde | Activity [13]: 14.2 mmol/L | Kd [14]: 2700 nM | Activity [15]: Non-Toxic | Activity [16]: 19.3 mmol/L | inhibition [17]: Dde | inhibition [18]: Dde | AUC(0-t) at 24 h [19]: 51400 ng·h/mL | Activity [20]: 6.7% | inhibition [21]: 0.85% | AUC(0-t) at 24 h [22]: 4940 ng·h/mL
